What was measured:
[1] = Miscibility of 3p with crude oil; assay type: physicochemical; details: room temperature, 30-95 wt % 3p
Text: 3-Pentanone properties. […] The density of 3p is 760 kg/m^3 at the experimental conditions in this research (347 K and atmospheric pressure).

[2] = Density and viscosity of 3p, 3pRB and surfactant solution; assay type: physicochemical; details: 347 K and atmospheric pressure
[3] = Density of crude oil/3p mixtures (in-line densitometer); assay type: physicochemical; details: 347 K
Method: Density and viscosity experiments. […] The system consists mainly of automated pumps, a sample accumulator, an in-line fluid densitometer, an in-line viscometer, an oven, and an effluent accumulator. The pump (Teledyne ISCO 100DX) maintained the system pressure automatically by water.
In the density measuring cell (Anton Paar DMA-HPM), fluid's density is measured in a U-shaped tube, in the range from 0 to 3000 kg/m^3. The instrument precision of the density meter is ±1 kg/m^3. Anton Paar DMA-HPM uses the method of oscillating U-tube for its density measurement, in which the sample's density is calculated from the sample's period of oscillation. The in-line viscometer (ViscoPro 2100) measures the viscosity of a fluid in the range from 0.2 to 2 cp. The instrument precision of the viscometer is ±0.02 cp and repeatability is ±0.5% of the reading. During the viscosity measurement, the magnetic piston is surrounded by the fluid sample and oscillates under magnetic force. The sample's viscosity is calculated from the time required for the piston to complete a two-way cycle. The viscometer and density meter were placed in a Despatch oven (model LAC2-18-8). Light-emitting diode screens that display measured data from the fluid densitometer and viscometer were connected outside the oven. The absolute pressure of the system was measured with a pressure gauge (Omega PX459-2.5KGI-EH).
Densities and viscosities were measured for the following mixtures of crude oil and 3p: 81.4 wt % crude oil and 18.6 wt % 3p (33 mol % 3p), 59.0 wt % crude oil and 41.0 wt % 3p (60 mol % 3p), and 35.1 wt % crude oil and 64.9 wt % 3p (80 mol % 3p). Each mixture was mixed in a glass bottle with a magnetic mixer before placing it in the accumulator.
Before each measurement, the system was cleaned thoroughly with toluene. Then, the system was dried by air and evacuated. Next, the fluid mixture was pumped into the system from the accumulator. Then, the temperature in the oven was increased to 347 K. When the temperature in the oven was stable, the mixture was measured for viscosities and densities at different pressures, ranging from 101 kPa to 10342 kPa.

[4] = Spontaneous imbibition in Amott cells; details: oil diluted by 18.6 wt % 3p
[5] = Coreflooding of fractured cores, vertical (Example 2)
Method: Experimental Procedure for Coreflooding. […] The Indiana limestone cores have the common dimensions with a diameter of 0.0254 m and a length of 0.127 m. The cores were saturated with RB first and then oil, during which the core properties were measured, such as porosity, permeability, and water and oil saturations.
It includes an accumulator for crude oil, a pump, a Hassler-type core holder, a hydraulic manual pump to maintain the overburden pressure, a differential pressure gauge, cylinders, and an oven. After a core was placed in the core holder, oil was injected into the cores at 100 cm^3/h and 347 K until no water production was observed.
An artificial fracture was created along the longitudinal axis using an electric saw for each core (FIG. 20). By following the procedure of Mejia, Teflon spacers with 0.001 m in width and 0.127 m in length were placed along two edges of the fracture to maintain a fracture aperture. Then, the core halves were carefully put together with the Teflon spacers in the fracture, wrapped with a Teflon tube, and placed inside a vertically oriented coreholder.
FIG. 21 provides a schematic of the experimental setup for coreflooding. It consists of accumulators for crude oil, RB, and chemical solution (3-pentanone or surfactant), a pump, a Hassler-type core holder, a hydraulic manual pump to maintain the overburden pressure, a differential pressure gauge, cylinders, and an oven. […] After a fractured core was placed in the coreholder, the oven temperature was increased to reservoir temperature (347 K). Then, the core was flooded with crude oil to remove any gas inside the fracture and measure the fracture permeability using the flow rate of 900 cm^3/h. The overburden pressure was adjusted so that all cores used in this research had similar fracture apertures and fracture permeabilities.
Fracture permeabilities were calculated. The equation for flow between parallel plates b=(3πdke)^1/3 was used to estimate a fracture aperture, where b is the fracture aperture, d is the core diameter, and ke is the effective oil permeability of the fractured core. […] Af and Am are cross-sectional areas of the fracture and matrix, respectively. kf and km are permeabilities of the fracture and matrix, respectively.
The initial RB stage was at 6 cm^3/h for 1.5 pore volumes injected (PVI), then at 0.05 cm^3/h for 0.3-0.4 PVI, and at 6 cm^3/h until there was no oil production. After that, a chemical slug (3-pentanone or surfactant) was injected at 0.6 cm^3/h for 1.6 PVI. Finally, the chase RB was injected at 0.6 cm^3/h. […] However, it was terminated after 1.2 PVI of the chase RB for core 1 because of operational constraints.
The coreflood effluent was collected in plastic graduating cylinders at room temperature. To correct the oil recovery factor for 3-pentanone solubility in oil, the 3-pentanone concentration in recovered oil was measured by the proton nuclear magnetic resonance (H NMR) method for the chemical slug and chase RB flooding periods for core 1.

[6] = Solubility of water in 3p; assay type: physicochemical; details: 343 K
[7] = Volume change on mixing of 3-pentanone and RB (molar volume); assay type: physicochemical; details: 347 K and atmospheric pressure
[8] = Solubility (quantitative 1H NMR) and aqueous stability of 3-pentanone in reservoir brine; details: 347 K

phase separation of 3p/crude oil mixtures [1]: No phase separation was observed | Density [2]: 760 kg/m^3 | density of crude oil diluted with 18.6 wt % 3-pentanone ([3]; atmospheric pressure): 772 kg/m^3 | Density ([3]; crude oil with 18.6 wt % (33 mol %) 3-pentanone, 103.97 kPa): 771.8049 kg/m^3 | Density ([3]; crude oil with 18.6 wt % (33 mol %) 3-pentanone, 1385.02 kPa): 773.0452 kg/m^3 | Density ([3]; crude oil with 18.6 wt % (33 mol %) 3-pentanone, 3452.00 kPa): 775.0159 kg/m^3 | Density ([3]; crude oil with 18.6 wt % (33 mol %) 3-pentanone, 6899.03 kPa): 778.2247 kg/m^3 | Density ([3]; crude oil with 18.6 wt % (33 mol %) 3-pentanone, 10345.03 kPa): 781.3632 kg/m^3 | Density ([3]; crude oil with 41.0 wt % (60 mol %) 3-pentanone, 107.01 kPa): 768.9360 kg/m^3 | Density ([3]; crude oil with 41.0 wt % (60 mol %) 3-pentanone, 1379.02 kPa): 770.3187 kg/m^3 | Density ([3]; crude oil with 41.0 wt % (60 mol %) 3-pentanone, 3447.03 kPa): 772.3456 kg/m^3 | Density ([3]; crude oil with 41.0 wt % (60 mol %) 3-pentanone, 3891.03 kPa): 775.7424 kg/m^3 | Density ([3]; crude oil with 41.0 wt % (60 mol %) 3-pentanone, 10343.03 kPa): 779.0497 kg/m^3 | Density ([3]; crude oil with 64.9 wt % (80 mol %) 3-pentanone, 101.01 kPa): 765.4374 kg/m^3 | Density ([3]; crude oil with 64.9 wt % (80 mol %) 3-pentanone, 1383.02 kPa): 766.7794 kg/m^3 | Density ([3]; crude oil with 64.9 wt % (80 mol %) 3-pentanone, 3445.03 kPa): 769.0788 kg/m^3 | Density ([3]; crude oil with 64.9 wt % (80 mol %) 3-pentanone, 6896.00 kPa): 772.6733 kg/m^3 | Density ([3]; crude oil with 64.9 wt % (80 mol %) 3-pentanone, 10342.00 kPa): 776.2332 kg/m^3 | solubility of water in 3p [6]: approximately 3 wt % | volume change on mixing of 3-pentanone and RB [7]: smaller than 0.39% | 3p solubility in deionized water [8]: 2.59 wt % | aqueous stability of 3p in RB (salt precipitation) ([8]; overall 3p 0.1-40 wt %): No salt precipitation was observed | solubility limit of 3-pentanone in RB ([8]; reservoir brine 68722 ppm, quantitative 1H NMR): 1.1 wt %
Structure (SMILES): CCC(=O)CC [3-pentanone]
increase of oleic phase saturation (oil swelling) ([4]; 347 K, atmospheric pressure): 24% | enhancement of oil recovery rate because of oil dilution by 3p (scaling theory) ([4]; spontaneous imbibition): 13% | incremental oil recovery factor, chase RB flooding stage ([5]; 1.2 PVI chase RB (terminated), core 1, 347 K): 8.4% | incremental oil recovery factor, chemical slug stage ([5]; 1.6 PVI slug after first RB flood, 1.1 wt % 3-pentanone in RB (core 1) or 1.0 wt % 2-EH-4PO-15EO in RB (core 2), 347 K): 30.9% | total improved oil recovery ([5]; chemical slug + chase RB stages (1.2 PVI chase core 1; 7.0 PVI chase core 2), 347 K): 39.3%

— patent publication US12031087B2, “Oxygenated solvents for improved production of oil and gas” (Board of Regents, The University of Texas System, priority 2019, dated 2024)
